Assay results published in PubChem BioAssay (NCI).
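All cell lines were grown in 96-well plates and treated with compound for 48 hours. At the GI50, growth is halved. TGI denotes the concentration required for complete inhibition of growth.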

Key:
Assay in all cases: NCI-60 cell line screen, 48 h
786-0 renal = tested on: 786-0 renal
A498 renal = tested on: A498 renal
A549 NSCLC = tested on: A549 NSCLC
ACHN renal = tested on: ACHN renal
BT-549 breast = tested on: BT-549 breast
CAKI-1 renal = tested on: CAKI-1 renal
CCRF-CEM leukemia = tested on: CCRF-CEM leukemia
COLO 205 colon = tested on: COLO 205 colon
DU-145 prostate = tested on: DU-145 prostate
EKVX NSCLC = tested on: EKVX NSCLC
HCC-2998 colon = tested on: HCC-2998 colon
HCT-116 colon = tested on: HCT-116 colon
HCT-15 colon = tested on: HCT-15 colon
HL-60(TB) leukemia = tested on: HL-60(TB) leukemia
HOP-62 NSCLC = tested on: HOP-62 NSCLC
HOP-92 NSCLC = tested on: HOP-92 NSCLC
HS 578T breast = tested on: HS 578T breast
HT29 colon = tested on: HT29 colon
IGROV1 ovarian = tested on: IGROV1 ovarian
K-562 leukemia = tested on: K-562 leukemia
KM12 colon = tested on: KM12 colon
M14 melanoma = tested on: M14 melanoma
MCF7 breast = tested on: MCF7 breast
MDA-MB-231 breast = tested on: MDA-MB-231 breast
MDA-MB-435 = tested on: MDA-MB-435
MOLT-4 leukemia = tested on: MOLT-4 leukemia
NCI-H226 lung = tested on: NCI-H226 lung
NCI-H23 lung = tested on: NCI-H23 lung
NCI-H460 lung = tested on: NCI-H460 lung
NCI-H522 lung = tested on: NCI-H522 lung
NCI/ADR-RES ovarian = tested on: NCI/ADR-RES ovarian
OVCAR-3 ovarian = tested on: OVCAR-3 ovarian
OVCAR-4 ovarian = tested on: OVCAR-4 ovarian
OVCAR-5 ovarian = tested on: OVCAR-5 ovarian
OVCAR-8 ovarian = tested on: OVCAR-8 ovarian
PC-3 prostate = tested on: PC-3 prostate
RPMI-8226 leukemia = tested on: RPMI-8226 leukemia
RXF 393 renal = tested on: RXF 393 renal
SF-268 CNS = tested on: SF-268 CNS
SF-295 CNS = tested on: SF-295 CNS
SF-539 CNS = tested on: SF-539 CNS
SK-MEL-2 melanoma = tested on: SK-MEL-2 melanoma
SK-MEL-28 melanoma = tested on: SK-MEL-28 melanoma
SK-MEL-5 melanoma = tested on: SK-MEL-5 melanoma
SK-OV-3 ovarian = tested on: SK-OV-3 ovarian
SN12C renal = tested on: SN12C renal
SNB-19 CNS = tested on: SNB-19 CNS
SNB-75 CNS = tested on: SNB-75 CNS
SR leukemia = tested on: SR leukemia
SW-620 colon = tested on: SW-620 colon
T-47D breast = tested on: T-47D breast
TK-10 renal = tested on: TK-10 renal
U251 CNS = tested on: U251 CNS
UACC-257 melanoma = tested on: UACC-257 melanoma
UACC-62 melanoma = tested on: UACC-62 melanoma
UO-31 renal = tested on: UO-31 renal
LOX IMVI melanoma = tested on: LOX IMVI melanoma
MALME-3M melanoma = tested on: MALME-3M melanoma

COc1ccc(CCNC(=O)Cc2ccccc2CCO)cc1OC
TGI (786-0 renal): > 100 µM | TGI (A498 renal): > 100 µM | TGI (A549 NSCLC): > 100 µM | TGI (ACHN renal): > 100 µM | TGI (BT-549 breast): > 100 µM | TGI (CAKI-1 renal): > 100 µM | TGI (CCRF-CEM leukemia): > 100 µM | TGI (COLO 205 colon): > 100 µM | TGI (DU-145 prostate): > 100 µM | TGI (EKVX NSCLC): > 100 µM | TGI (HCC-2998 colon): > 100 µM | TGI (HCT-116 colon): > 100 µM | TGI (HCT-15 colon): > 100 µM | TGI (HL-60(TB) leukemia): > 100 µM | TGI (HOP-62 NSCLC): > 100 µM | TGI (HOP-92 NSCLC): > 100 µM | TGI (HS 578T breast): > 100 µM | TGI (HT29 colon): > 100 µM | TGI (IGROV1 ovarian): > 100 µM | TGI (K-562 leukemia): > 100 µM | TGI (KM12 colon): > 100 µM | TGI (M14 melanoma): > 100 µM | TGI (MCF7 breast): > 100 µM | TGI (MDA-MB-231 breast): > 100 µM | TGI (MDA-MB-435): > 100 µM | TGI (MOLT-4 leukemia): > 100 µM | TGI (NCI-H226 lung): > 100 µM | TGI (NCI-H23 lung): > 100 µM | TGI (NCI-H460 lung): > 100 µM | TGI (NCI-H522 lung): > 100 µM | TGI (NCI/ADR-RES ovarian): > 100 µM | TGI (OVCAR-3 ovarian): > 100 µM | TGI (OVCAR-4 ovarian): > 100 µM | TGI (OVCAR-5 ovarian): > 100 µM | TGI (OVCAR-8 ovarian): > 100 µM | TGI (PC-3 prostate): > 100 µM | TGI (RPMI-8226 leukemia): > 100 µM | TGI (RXF 393 renal): > 100 µM | TGI (SF-268 CNS): > 100 µM | TGI (SF-295 CNS): > 100 µM | TGI (SF-539 CNS): > 100 µM | TGI (SK-MEL-2 melanoma): > 100 µM | TGI (SK-MEL-28 melanoma): > 100 µM | TGI (SK-MEL-5 melanoma): > 100 µM | TGI (SK-OV-3 ovarian): > 100 µM | TGI (SN12C renal): > 100 µM | TGI (SNB-19 CNS): > 100 µM | TGI (SNB-75 CNS): > 100 µM | TGI (SR leukemia): > 100 µM | TGI (SW-620 colon): > 100 µM | TGI (T-47D breast): > 100 µM | TGI (TK-10 renal): > 100 µM | TGI (U251 CNS): > 100 µM | TGI (UACC-257 melanoma): > 100 µM | TGI (UACC-62 melanoma): > 100 µM | TGI (UO-31 renal): > 100 µM

CCCCn1c(=O)c(/C=C/C(=O)/C=C/c2ccc(O)c(OC)c2)cc2ccc(Cl)cc21
GI50 (786-0 renal): 1.77 µM | TGI (786-0 renal): 3.31 µM | GI50 (A549 NSCLC): 1.72 µM | TGI (A549 NSCLC): 4.84 µM | GI50 (ACHN renal): 1.6 µM | TGI (ACHN renal): 2.95 µM | GI50 (BT-549 breast): 1.76 µM | TGI (BT-549 breast): 4.25 µM | GI50 (CAKI-1 renal): 2.16 µM | TGI (CAKI-1 renal): 3.91 µM | GI50 (CCRF-CEM leukemia): 2.79 µM | TGI (CCRF-CEM leukemia): 22 µM | GI50 (COLO 205 colon): 1.72 µM | TGI (COLO 205 colon): 4.83 µM | GI50 (DU-145 prostate): 1.79 µM | TGI (DU-145 prostate): 3.92 µM | GI50 (EKVX NSCLC): 2.18 µM | TGI (EKVX NSCLC): 4.58 µM | GI50 (HCC-2998 colon): 2.05 µM | TGI (HCC-2998 colon): 3.54 µM | GI50 (HCT-116 colon): 1.52 µM | TGI (HCT-116 colon): 3 µM | GI50 (HCT-15 colon): 1.9 µM | TGI (HCT-15 colon): 5.94 µM | GI50 (HL-60(TB) leukemia): 2.34 µM | TGI (HL-60(TB) leukemia): 13.4 µM | GI50 (HOP-62 NSCLC): 1.81 µM | TGI (HOP-62 NSCLC): 4.17 µM | GI50 (HOP-92 NSCLC): 1.75 µM | TGI (HOP-92 NSCLC): 4.19 µM | GI50 (HS 578T breast): 3.18 µM | TGI (HS 578T breast): 14.8 µM | GI50 (HT29 colon): 0.846 µM | TGI (HT29 colon): 2.57 µM | GI50 (IGROV1 ovarian): 1.92 µM | TGI (IGROV1 ovarian): 4.1 µM | GI50 (K-562 leukemia): 2.82 µM | TGI (K-562 leukemia): 12.8 µM | GI50 (KM12 colon): 1.89 µM | TGI (KM12 colon): 3.66 µM | GI50 (LOX IMVI melanoma): 1.51 µM | TGI (LOX IMVI melanoma): 2.84 µM | GI50 (M14 melanoma): 1.86 µM | TGI (M14 melanoma): 4.17 µM | GI50 (MALME-3M melanoma): 2.14 µM | TGI (MALME-3M melanoma): 4.92 µM | GI50 (MCF7 breast): 1.88 µM | TGI (MCF7 breast): 10.8 µM | GI50 (MDA-MB-231 breast): 2.51 µM | TGI (MDA-MB-231 breast): 7.73 µM | GI50 (MDA-MB-435): 1.77 µM | TGI (MDA-MB-435): 4.17 µM | GI50 (MOLT-4 leukemia): 2.17 µM | TGI (MOLT-4 leukemia): 16.3 µM | GI50 (NCI-H226 lung): 1.77 µM | TGI (NCI-H226 lung): 4.23 µM | GI50 (NCI-H23 lung): 2.06 µM | TGI (NCI-H23 lung): 4.98 µM | GI50 (NCI-H460 lung): 1.96 µM | TGI (NCI-H460 lung): 4.17 µM | GI50 (NCI-H522 lung): 1.78 µM | TGI (NCI-H522 lung): 3.86 µM | GI50 (NCI/ADR-RES ovarian): 2.9 µM | TGI (NCI/ADR-RES ovarian): 10.7 µM | GI50 (OVCAR-3 ovarian): 1.7 µM | TGI (OVCAR-3 ovarian): 3.24 µM | GI50 (OVCAR-4 ovarian): 2.34 µM | TGI (OVCAR-4 ovarian): 9.81 µM | GI50 (OVCAR-5 ovarian): 2.57 µM | TGI (OVCAR-5 ovarian): 4.89 µM | GI50 (OVCAR-8 ovarian): 2.47 µM | TGI (OVCAR-8 ovarian): 9.49 µM | GI50 (PC-3 prostate): 1.89 µM | TGI (PC-3 prostate): 4.71 µM | GI50 (RPMI-8226 leukemia): 2.46 µM | TGI (RPMI-8226 leukemia): 7.62 µM | GI50 (RXF 393 renal): 1.66 µM | TGI (RXF 393 renal): 3.25 µM | GI50 (SF-268 CNS): 1.96 µM | TGI (SF-268 CNS): 5.43 µM | GI50 (SF-295 CNS): 2.75 µM | TGI (SF-295 CNS): 10.3 µM | GI50 (SF-539 CNS): 1.62 µM | TGI (SF-539 CNS): 3.18 µM | GI50 (SK-MEL-2 melanoma): 2.67 µM | TGI (SK-MEL-2 melanoma): 6.32 µM | GI50 (SK-MEL-28 melanoma): 1.93 µM | TGI (SK-MEL-28 melanoma): 4.12 µM | GI50 (SK-MEL-5 melanoma): 1.69 µM | TGI (SK-MEL-5 melanoma): 3.09 µM | GI50 (SK-OV-3 ovarian): 3.82 µM | TGI (SK-OV-3 ovarian): 14.2 µM | GI50 (SN12C renal): 1.91 µM | TGI (SN12C renal): 4.17 µM | GI50 (SNB-19 CNS): 1.62 µM | TGI (SNB-19 CNS): 3.3 µM | GI50 (SNB-75 CNS): 2.26 µM | TGI (SNB-75 CNS): 6.22 µM | GI50 (SR leukemia): 2.04 µM | TGI (SR leukemia): 17.6 µM | GI50 (SW-620 colon): 2.05 µM | TGI (SW-620 colon): 4.37 µM | GI50 (T-47D breast): 1.85 µM | TGI (T-47D breast): 6.28 µM | GI50 (TK-10 renal): 2.51 µM | TGI (TK-10 renal): 5.47 µM | GI50 (U251 CNS): 1.59 µM | TGI (U251 CNS): 3.08 µM | GI50 (UACC-257 melanoma): 1.41 µM | TGI (UACC-257 melanoma): 3.31 µM | GI50 (UACC-62 melanoma): 1.48 µM | TGI (UACC-62 melanoma): 3.24 µM | GI50 (UO-31 renal): 1.59 µM | TGI (UO-31 renal): 2.93 µM
